Earlier results, collected in PMC9292820 (British Journal of Clinical Pharmacology, 2021).

Tests used:
[1] = tested on: healthy male participants
[2] = tested on: angiotensin II (Ang‐II); details: rats, bolus injection

Substance | decrease in pupil/iris ratio (miosis) [1] | levels of angiotensin II (Ang‐II) [2]
buprenorphine | up to 50% | –
opiorphin (QRFSR; Opiorphin; UniProt Q99935 22-26, looked up) | – | increased levels
